The source of these data is patent US20150218212A1, “FLUORINATED EPOXYKETONE-BASED TETRAPEPTIDE COMPOUNDS AND USES THEREOF AS PROTEASOME INHIBITORS” (FLUORINOV PHARMA INC., priority 2012, published 2015).

Where two headings read alike, the source gives them in different places. A value given as a limit tells only on which side of the number the result lay.

The target of assay [1] is T1, proteasome Chymotrypsin-like (CT-L) activity (Mus musculus, UniProt O09061+O55234).
T1 construct: RBCs were lysed with assay lysis buffer and incubated on ice for 30 minutes; from tissue; host or cells: red blood cells of NOD/SCID mice
The assay is described as follows: Pharmacodynamic proteasome activity in murine red blood cells, CT-L. Type of assay: in vivo, NOD/SCID mice. Conditions: iv, mice, 2 mg/kg i.v. The procedure: Cells were harvested by centrifugation at 1,200 rpm at room temperature. Cell pellets were washed with PBS (phosphate buffered saline) and lysed with assay lysis buffer (50 mM HEPES (N-2-hydroxyethylpiperazine-N′-2-ethanesulfonic acid), pH 7.5; 150 mM NaCl; 1% Triton X-100; 2 mM ATP). Cell lysates were incubated on ice for 30 minutes, mixed by vortex every 5 minutes, and then centrifuged at 12,000 g for 10 minutes. The supernatant was transferred to a 96-well plate. For each assay, 10 μg of total protein were incubated for 1 hour at 37° C. with increasing concentrations (1 nM to 10 μM) of test compound diluted in assay buffer (50 mM tris-HCl (tris(hydroxymethyl)aminomethane-HCl), pH 7.5; 150 mM NaCl). DMSO alone was used as a control in every assay plate. After incubation, a specific fluorogenic proteasome substrate was added to each assay reaction at a final concentration of 40 μM in a total volume of 100 μL. N-Succinyl-Leu-Leu-Val-Tyr-7-amino-4-methylcoumarin (Suc-Leu-Leu-Val-Tyr-AMC) was used for measuring chymotrypsin-like (CT-L) activity, t-butoxycarbonyl-Leu-Arg-Arg-7-amino-4-methylcoumarin (Boc-Leu-Arg-Arg-AMC) for trypsin-like (T-L) activity, and benzyloxycarbonyl-L-leucyl-L-leucyl-L-glutamyl-7-amino-4-methylcoumarin (Z-Leu-Leu-Glu-AMC) for caspase-like (C-L) activity. The excitation wavelength was set at 360 nm and the fluorescence emission wavelength of AMC was detected at 460 nm. The fluorescence of free AMC released during the enzymatic reaction was measured with a SpectraMax M5 fluorescent spectrophotometric plate reader (Molecular Devices, Sunnyvale, Calif.). AMC release rate was measured at 37° C. in a kinetic mode, recording every 5 minutes for 30 minutes. Experiments were performed in triplicate and repeated at least twice.
All mouse experiments were performed in accordance with approval from the Ontario Cancer Institute institutional animal review board. Five- to six-week-old male non-obese diabetic/severe combined immunodeficient (NOD/SCID) mice were grouped randomly (n=3 mice per group). Mice were administered vehicle (5% DMSO, 20% Cremophor) or compounds of Formula I at different doses either intravenously or by oral gavage, and venous blood samples (20-50 μL) were collected from each mouse over 24 hours. Blood samples were mixed with heparin (APP Pharmaceuticals; Schaumburg, Ill.) in 0.5 mL tubes in accordance with the manufacturer's instructions. After centrifugal separation at 3,000 g for 10 minutes, red blood cells (RBCs) in the bottom layer were transferred into a new tube and stored at −70° C. until use. RBCs were lysed with assay lysis buffer and incubated on ice for 30 minutes, mixing by vortex every 5 minutes, and then centrifuged at 12,000 g for 10 minutes. The supernatant was transferred to a 96-well plate and proteasome activity was measured as described above for tumor cell lysates.
Proteasome subunit activity (Chymotrypsin-like, Trypsin-like, Caspase-like, CT-L, T-L, C-L, respectively) were monitored over the course of 24 hrs following […] administration of representative compounds of Formula I. NOD/SCID mice were treated with compounds of Formula I (2 mg/kg by iv administration) or vehicle control and carfilzomib for up to 24 hours, as described above. Table 9 summarizes the data on pharmacodynamic activity of representative compounds of Formula I following a dose of 2 mg/kg intravenous (i.v) administration to mice. Data are presented as mean residual activity (SEM) relative to vehicle treated controls.

For the next assay, the system named is A549/ATCC. The assay is described as follows: NCI screening panel, A549/ATCC (Non-Small Cell Lung Cancer). Type of assay: cell-based, human. As to the method:
Representative compounds of Formula I were screened using the National Cancer Institute (NCI) screening panel, which consists of a panel of human tumor cell lines, representing leukemia, melanoma, and cancers of the lung, colon, ovary, breast, prostate and renal system.
After 24 h, two plates of each cell line are fixed in situ with TCA, to represent a measurement of the cell population for each cell line at the time of drug addition (Tz). Experimental drugs are solubilised in dimethyl sulfoxide at 400-fold the desired final maximum test concentration and stored frozen prior to use. At the time of drug addition, an aliquot of frozen concentrate is thawed and diluted to twice the desired final maximum test concentration with complete medium containing 50 μg/mL gentamicin. Additional four, 10-fold or ½ log serial dilutions are made to provide a total of five drug concentrations plus control. Aliquots of 100 μl of these different drug dilutions are added to the appropriate microtiter wells already containing 100 μl of medium, resulting in the required final drug concentrations.
Following drug addition, the plates are incubated for an additional 48 h at 37° C., 5% CO2, 95% air, and 100% relative humidity. For adherent cells, the assay is terminated by the addition of cold TCA (trichloroacetic acid). Cells are fixed in situ by the gentle addition of 50 μl of cold 50% (w/v) TCA (final concentration, 10% TCA) and incubated for 60 minutes at 4° C. The supernatant is discarded, and the plates are washed five times with tap water and air dried. Sulforhodamine B (SRB) solution (100 μl) at 0.4% (w/v) in 1% acetic acid is added to each well, and plates are incubated for 10 minutes at room temperature. After staining, unbound dye is removed by washing five times with 1% acetic acid and the plates are air dried. Bound stain is subsequently solubilised with 10 mM trizma base, and the absorbance is read on an automated plate reader at a wavelength of 515 nm. For suspension cells, the methodology is the same except that the assay is terminated by fixing settled cells at the bottom of the wells by gently adding 50 μl of 80% TCA (final concentration, 16% TCA). Using the seven absorbance measurements [time zero, (Tz), control growth, (C), and test growth in the presence of drug at the five concentration levels (Ti)], the percentage growth is calculated at each of the drug concentrations levels. Percentage growth inhibition is calculated as: [(Ti−Tz)/(C−Tz)]×100 for concentrations for which Ti>/=Tz and [(Ti−Tz)/Tz]×100 for concentrations for which Ti<Tz.
Three dose response parameters are calculated for each experimental agent. Growth inhibition of 50% (GI50) is calculated from [(Ti−Tz)/(C−Tz)]×100=50, which is the drug concentration resulting in a 50% reduction in the net protein increase (as measured by SRB staining) in control cells during the drug incubation. The drug concentration resulting in total growth inhibition (TGI) is calculated from Ti=Tz. The LC50 (concentration of drug resulting in a 50% reduction in the measured protein at the end of the drug treatment as compared to that at the beginning) indicating a net loss of cells following treatment is calculated from [(Ti−Tz)/Tz]×100=−50. Values are calculated for each of these three parameters if the level of activity is reached. However, if the effect is not reached or is exceeded, the value for that parameter is expressed as greater or less than the maximum or minimum concentration tested.

With `CC(C)C[C@H](NC(=O)[C@H](COC(F)F)NC(=O)[C@H](COC(F)F)NC(=O)[C@H](COC(F)F)NC(=O)CN1CCOCC1)C(=O)[C@@]1(C)CO1` [Example 17, (2S)-3-(difluoromethoxy)-N-[(1S)-1-(difluoromethoxymethyl)-2-[[(1S)-1-(difluoro-methoxymethyl)-2-[[(1S)-3-methyl-1-[(2R)-2-methyloxirane-2-carbonyl]butyl]amino]-2-oxo-ethyl]amino]-2-oxo-ethyl]-2-[(2-mor-pholinoacetyl)amino]-propanamide], the remaining activity at 2 mg/kg in assay [1] (30 min, read-out: Chymotrypsin-like (CT-L) mean residual activity relative to vehicle treated controls) came to 25%; in assay [1] (24 hrs, read-out: Chymotrypsin-like (CT-L) mean residual activity relative to vehicle treated controls) it was 23%; in assay [1] (time 0, read-out: Chymotrypsin-like (CT-L) mean residual activity relative to vehicle treated controls), 100%. The compound further showed a Log10GI50 in the assay with A549/ATCC of −6.99. In the assay on A549/ATCC, this compound displayed a Log10LC50 greater than −4.00. The compound further came in with a Log10TGI50 in the assay on A549/ATCC of −5.06.
